Measurements as given in patent US11352330B2, “Phenoxymethyl derivatives” (Hoffmann-La Roche Inc., priority 2015, dated 2022).

Biological target: human ATX (Homo sapiens (Human), UniProt Q13822)
Assay: Human ATX enzyme inhibition assay (fluorescence quenching, MR121 substrate)
Assay type: biochemical
Conditions: human His-tagged ATX 30 nM, MR121 substrate 1 μM, 30° C.
Procedure: Human ATX Enzyme Inhibition Assay
ATX inhibition was measured by a fluorescence quenching assay using a specifically labeled substrate analogue (MR121 substrate). To obtain this MR121 substrate, BOC and TBS protected 6-amino-hexanoic acid (R)-3-({2-[3-(2-{2-[2-(2-amino-ethoxy)-ethoxy]-ethoxy}-ethoxy)-propionylamino]-ethoxy}-hydroxy-phosphoryloxy)-2-hydroxy-propyl ester (Ferguson et al., Org Lett 2006, 8 (10), 2023) was labeled with MR121 fluorophore (CAS 185308-24-1, 1-(3-carboxypropyl)-11-ethyl-1,2,3,4,8,9,10,11-octahydro-dipyrido[3,2-b:2′,3′-i]phenoxazin-13-ium) on the free amine of the ethanolamine side and then, after deprotection, subsequently with tryptophan on the side of the aminohexanoic acid.
Assay working solutions were made as follows:
Assay buffer (50 mM Tris-HCl, 140 mM NaCl, 5 mM KCl, 1 mM CaCl2, 1 mM MgCl2, 0.01% Triton-X-100, pH 8.0;
ATX solution: ATX (human His-tagged) stock solution (1.08 mg/mL in 20 mM bicine, pH 8.5, 0.15 M NaCl, 10% glycerol, 0.3% CHAPS, 0.02% NaN3), diluted to 1.4-2.5× final concentration in assay buffer;
MR121 substrate solution: MR121 substrate stock solution (800 μM MR121 substrate in DMSO), diluted to 2-5× final concentration in assay buffer.
Test compounds (10 mM stock in DMSO, 8 μL) were obtained in 384 well sample plates (Corning Costar #3655) and diluted with 8 μL DMSO. Row-wise serial dilutions were made by transferring 8 μL cpd solution to the next row up to row O. The compound and control solutions were mixed five times and 2 μL were transferred to 384 well assay plates (Corning Costar #3702). Then, 15 μL of 41.7 nM ATX solution was added (30 nM final concentration), mixed five times and then incubated for 15 minutes at 30° C. 10 μL of MR121 substrate solution was added (1 μM final concentration), mixed 30 times and then incubated for 15 minutes at 30° C.

IC50 [nM] | Compound
15 | Cc1cc(OCc2cc(C(=O)N(C)C)[nH]n2)c(C(C)(C)C)cc1Cl [Example F5, 3-((2-(tert-Butyl)-4-chloro-5-methylphenoxy)methyl)-N,N-dimethyl-1H-pyrazole-5-carboxamide]
9 | Cc1cc(OCc2n[nH]c3nc(NCCO)ncc23)c(C(C)(C)C)cc1Cl [Example D30]
69 | N#Cc1cc(-c2cc(OC3CC3)ccc2F)c(OCc2n[nH]c3cnccc23)cc1Cl [Example D51]
11 | COc1ncccc1-c1cc(Cl)c(C)cc1OCc1n[nH]c2cnccc12 [Example D47]
32 | Cc1cc(C(C)(C)C)c(OCc2n[nH]c3ncccc23)cc1C#N [Example D48]
35 | Cc1cc(OCc2n[nH]c3ncccc23)c(-c2cccc(C(=O)NCCO)c2)cc1Cl [Example D19]
80400 | COCC(=O)N1CCc2[nH]nc(COc3cc(C)c(Cl)cc3C(C)(C)C)c2C1 [Example E3, 1-(3-((2-tert-Butyl-4-chloro-5-methylphenoxy)methyl)-6,7-dihydro-1H-pyrazolo[4,3-c]pyridin-5(4H)-yl)-2-methoxyethanone]
2 | Cc1cc(OCc2n[nH]c3ncccc23)c(-c2cccc(C(=O)N3CCOCC3)c2)cc1Cl [Example D17, [3-[5-Chloro-4-methyl-2-(1H-pyrazolo[3,4-b]pyridin-3-ylmethoxy)phenyl]phenyl]-morpholin-4-ylmethanone]
4 | Cc1cc(OCc2n[nH]c3ncccc23)c(C(C)(C)C)cc1Cl [Example D3, 3-[(2-tert-Butyl-4-chloro-5-methylphenoxy)methyl]-1H-pyrazolo[3,4-b]pyridine]
8 | Cc1cc(OCc2n[nH]c3nc(N4CC(O)C4)ncc23)c(C(C)(C)C)cc1C#N [Example D32, 5-tert-Butyl-4-[[6-(3-hydroxyazetidin-1-yl)-1H-pyrazolo[3,4-d]pyrimidin-3-yl]methoxy]-2-methylbenzonitrile]
41300 | CC(=O)N1CCc2[nH]nc(COc3cc(C)c(Cl)cc3C(C)(C)C)c2C1 [Example E2, 1-(3-((2-tert-Butyl-4-chloro-5-methylphenoxy)methyl)-6,7-dihydro-1H-pyrazolo[4,3-c]pyridin-5(4H)-yl)ethanone]
18 | Cc1cc(OCc2cc[nH]n2)c(C(C)(C)C)cc1C#N [Example F2, 4-((1H-Pyrazol-3-yl)methoxy)-5-tert-butyl-2-methylbenzonitrile]
9 | Cc1cc(OCc2n[nH]c3nc(OCCO)ncc23)c(C(C)(C)C)cc1C#N [Example D38, 5-tert-Butyl-4-[[6-(2-hydroxyethoxy)-1H-pyrazolo[3,4-d]pyrimidin-3-yl]methoxy]-2-methylbenzonitrile]
19 | Cc1cc(OCc2n[nH]c3c2CCNC3)c(C(C)(C)C)cc1Cl [Example E4, 3-((2-tert-Butyl-4-chloro-5-methylphenoxy)methyl)-4,5,6,7-tetrahydro-1H-pyrazolo[3,4-c]pyridine]
18 | COCCNC(=O)c1cccc(-c2cc(Cl)c(C)cc2OCc2n[nH]c3ncccc23)c1 [Example D16]
7 | Cc1cc(OCc2n[nH]c3nc(OCCO)ncc23)c(C(C)(C)C)cc1Cl [Example D31, 2-[[3-[(2-tert-Butyl-4-chloro-&-methylphenoxy)methyl]-1H-pyrazolo[3,4-d]pyrimidin-6-yl]oxy]ethanol]
23 | CC(C)(C)c1cc(S(C)(=O)=O)ccc1OCc1n[nH]c2ncccc12 [Example D45]

Second part, the compound before the results:

Compound | IC50 [nM]
Cn1c(COc2cc(Cl)c(C#N)cc2-c2cccc(-c3cc[nH]n3)c2)n[nH]c1=O [Example B34, 2-Chloro-4-[(4-methyl-5-oxo-1H-1,2,4-triazol-3-yl)methoxy]-5-[3-(H-pyrazol-3-yl)phenyl]benzonitrile] | 51
COc1ccc(C(C)C)cc1-c1cc(Cl)c(C)cc1OCc1n[nH]c(=O)n1C [Example B60] | 11
Cc1cc(OCc2n[nH]c(=O)n2C)c(-c2cncn2C)cc1Cl [Example B27, 3-[[4-Chloro-5-methyl-2-(3-methylimidazol-4-yl)phenoxy]methyl]-4-methyl-1H-1,2,4-triazol-5-one] | 3720
Cc1cc(OCc2n[nH]c(=O)n2C)c(-c2cc(OCC3CCOCC3)ccc2F)cc1Cl [Example B72] | 10
CC(C)Oc1ccc(F)c(-c2cc(C#N)c(Cl)cc2OCc2n[nH]c(=O)n2C)c1 [Example B89] | 4
Cc1cc(OCc2n[nH]c(=O)n2C)c(-c2cccc(C(=O)N3CCCCC3)c2)cc1Cl [Example B8] | 10
Cc1nnc(-c2cccc(-c3cc(C#N)c(Cl)cc3OCc3n[nH]c(=O)n3C)c2)o1 [Example B37] | 79
Cc1cc(OCc2n[nH]c(=O)n2C)c(-c2cnc[nH]2)cc1Cl [Example B28, 3-[[4-Chloro-2-(1H-imidazol-5-yl)-5-methylphenoxy]methyl]-4-methyl-1H-1,2,4-triazol-5-one] | 5940
Cc1cc(OCc2n[nH]c(=O)n2C)c(-c2cc(C(=O)NC3CC3)ccc2F)cc1Cl [Example B15] | 11
Cn1c(COc2cc(Cl)c(C#N)cc2-c2ccccc2F)n[nH]c1=O [Example B84] | 19
Cn1c(COc2cc(Cl)c(C#N)cc2-c2cc(C(F)(F)F)ccc2F)n[nH]c1=O [Example B96] | 37
COc1ccc(C(F)(F)F)cc1-c1cc(Cl)c(C)cc1OCc1n[nH]c(=O)n1C [Example B59] | 25
COc1cccc(-c2cc(Cl)c(C)cc2OCc2n[nH]c(=O)n2C)c1F [Example B90] | 7
Cc1cc(OCc2n[nH]c(=O)n2C)c(-c2cc(C(=O)N(C)C)ccc2F)cc1Cl [Example B38] | 8
Cc1cc(OCc2n[nH]c(=O)n2C)c(-c2cc(CN3CCOC3=O)ccc2F)cc1Cl [Example B82] | 8
Cc1cc(OCc2n[nH]c(=O)n2C)c(C2CCOCC2)cc1Cl [Example A21] | 62
COC(=O)c1cccc(-c2cc(Cl)c(C)cc2OCc2n[nH]c(=O)n2C)c1 [Example B42, Methyl 3-[5-chloro-4-methyl-2-[(4-methyl-5-oxo-1H-1,2,4-triazol-3-yl)methoxy]phenyl]benzoate] | 21
Cc1cc(OCc2n[nH]c(=O)n2C)c(-c2cc(C(F)(F)F)nn2C)cc1Cl [Example B24, 3-[[4-Chloro-5-methyl-2-[2-methyl-5-(trifluoromethyl)pyrazol-3-yl]phenoxy]methyl]4-methyl-1H-1,2,4-triazol-5-one] | 126

Compound | IC50 [nM]
Cc1cc(OCc2ccc(=O)[nH]n2)c(C2CCOCC2)cc1Cl [Example C7, 3-[[4-chloro-5-methyl-2-(oxan-4-yl)phenoxy]methyl]-1H-pyridazin-6-one] | 22
Cc1cc(OCc2n[nH]c(=O)n2C)c(-c2c(F)ccc3c2oc(=O)n3C)cc1Cl [Example B77] | 15
Cc1cc(OCc2n[nH]c(=O)n2C)c(-c2cccc(C(=O)O)c2)cc1Cl [Example B43, 3-[5-Chloro-4-methyl-2-[(4-methyl-5-oxo-1H-1,2,4-triazol-3-yl)methoxy]phenyl]benzoic acid] | 1100
Cc1cc(OCc2n[nH]c(=O)n2C)c(-c2ncccn2)cc1Cl [Example B23, 3-[(4-Chloro-5-methyl-2-pyrimidin-2-yl-phenoxy)methyl]-4-methyl-1H-1,2,4-triazol-5-one] | 212
N#Cc1cc(-c2cc(OC3CC3)ccc2F)c(OCc2ccc(=O)[nH]n2)cc1Cl [Example C14] | 5
N#Cc1cc(-c2ccccc2)c(OCc2ccc(=O)[nH]n2)cc1Cl [Example C12] | 3
Cc1cc(OCc2n[nH]c(=O)n2C)c(-c2cc(OC(C)C)ccc2F)cc1Cl [Example B57] | 11
Cc1cc(OCc2n[nH]c(=O)n2C)c(-c2cc(C(=O)N(C)C3CC3)ccc2F)cc1Cl [Example B63] | 10
Cc1cc(OCc2n[nH]c(=O)n2C)c(-c2cc(OCC3CCCO3)ccc2F)cc1Cl (stereo not shown) [Example B74] | 6
Cc1cc(OCc2n[nH]c(=O)n2C)c(-c2cc(OCC(C)C)ccc2F)cc1Cl [Example B58] | 16
Cn1c(COc2cc(S(C)(=O)=O)c(Cl)cc2C2CC2)n[nH]c1=O [Example A14] | 1890
Cc1cc(OCc2n[nH]c(=O)n2C)c(-c2ccc(Cl)cc2)cc1Cl [Example B4] | 6
Cc1cc(OCc2n[nH]c(=O)n2C)c(-c2cc(OCC(=O)N(C)C)ccc2F)cc1Cl [Example B75] | 10
COc1ncccc1-c1cc(Cl)c(C)cc1OCc1n[nH]c(=O)n1C [Example B53] | 42
Cc1cc(OCc2n[nH]c(=O)n2C)c(-c2cccc(Cl)n2)cc1Cl [Example B19] | 65
Cn1c(COc2cc(Cl)c(C#N)cc2-c2cccc(F)c2)n[nH]c1=O [Example B85] | 21
Cc1nc2cc(OCc3n[nH]c(=O)n3C)c(C3CC3)cc2s1 [Example A30] | 9
